Read-outs that look alike come from different tables or passages of the source.
What was measured:
[1] = target: AM2 V27A (valine→alanine mutation at residue 27 in the M2 protein) (Influenza A virus, UniProt P0DOF5, V27A); assay type: cell-based, influenza virus A/Udorn/72
[2] = target: AM2 S31N (serine→asparagine mutation at residue 31 in the M2 protein) (Influenza A virus, UniProt P0DOF5, S31N); assay type: cell-based, influenza virus A/Udorn/72

Structure (SMILES)	V27A OOcyte Inhibition at 100 uM (%) [1]	S31N OOcyte Inhibition at 100 uM (%) [2]	V27A OOcyte Inhibition at 100 uM (%) ([1]; pH 5.5)	S31N OOcyte Inhibition at 100 uM (%) ([2]; pH 5.5)
c1csc(-c2ncc(CNC34CC5CC(CC(C5)C3)C4)cn2)c1 [Example 61a, N-((2-(thiophen-2-yl)pyrimidin-5-yl)methyl)adamantan-1-amine]	B (key: (A)=31-95%; (B)=0-30%)	A (key: (A)=31-95%; (B)=0-30%)	–	–
Fc1ccc(C(F)(F)F)cc1CNC12CC3CC(CC(C3)C1)C2 [Example 62, Adamantan-1-yl-(2-fluoro-5-trifluoromethyl-benzyl)-amine]	–	–	B (key: (A)=31-95%; (B)=0-30%)	B (key: (A)=31-95%; (B)=0-30%)
c1coc(-c2ncc(CNC34CC5CC(CC(C5)C3)C4)cn2)c1 [Example 62a, N-((2-(furan-2-yl)pyrimidin-5-yl)methyl)adamantan-1-amine]	B (key: (A)=31-95%; (B)=0-30%)	A (key: (A)=31-95%; (B)=0-30%)	–	–
Oc1cccc(CNC23CC4CC(CC(C4)C2)C3)c1O [Example 64, 3-(Adamantan-1-ylaminomethyl)-benzene-1,2-diol]	–	–	A (key: (A)=31-95%; (B)=0-30%)	B (key: (A)=31-95%; (B)=0-30%)
Oc1ccc(CNC23CC4CC(CC(C4)C2)C3)c(O)c1O [Example 65, 4-(Adamantan-1-ylaminomethyl)-benzene-1,2,3-triol]	–	–	A (key: (A)=31-95%; (B)=0-30%)	B (key: (A)=31-95%; (B)=0-30%)
Oc1cccc2ccc(CNC34CC5CC(CC(C5)C3)C4)nc12 [Example 65a, 2-((adamantan-1-ylamino)methyl)quinolin-8-ol]	B (key: (A)=31-95%; (B)=0-30%)	B (key: (A)=31-95%; (B)=0-30%)	–	–
COc1cc(O)cc(OC)c1CNC12CC3CC(CC(C3)C1)C2 [Example 66, 4-(Adamantan-1-ylaminomethyl)-3,5-dimethoxy-phenol]	–	–	B (key: (A)=31-95%; (B)=0-30%)	B (key: (A)=31-95%; (B)=0-30%)
c1cc(CNC23CC4CC(CC(C4)C2)C3)co1 [Example 66a, Adamantan-1-yl-furan-3-ylmethyl-amine]	B (key: (A)=31-95%; (B)=0-30%)	B (key: (A)=31-95%; (B)=0-30%)	–	–
Oc1c(F)cc(CNC23CC4CC(CC(C4)C2)C3)cc1Cl [Example 68, 4-(Adamantan-1-ylaminomethyl)-2-chloro-6-fluoro-phenol]	–	–	B (key: (A)=31-95%; (B)=0-30%)	B (key: (A)=31-95%; (B)=0-30%)
c1cc(CNC23CC4CC(CC(C4)C2)C3)cs1 [Example 68a, Adamantan-1-yl-thiophen-3-ylmethyl-amine]	A (key: (A)=31-95%; (B)=0-30%)	B (key: (A)=31-95%; (B)=0-30%)	–	–
Oc1cc(F)c(CNC23CC4CC(CC(C4)C2)C3)c(F)c1 [Example 69, 4-(Adamantan-1-ylaminomethyl)-3,5-difluoro-phenol]	–	–	A (key: (A)=31-95%; (B)=0-30%)	B (key: (A)=31-95%; (B)=0-30%)
c1coc(CNC23CC4CC(CC(C4)C2)C3)c1 [Example 69a, Adamantan-1-yl-furan-2-ylmethyl-amine]	B (key: (A)=31-95%; (B)=0-30%)	B (key: (A)=31-95%; (B)=0-30%)	–	–
Oc1cc(O)c(CNC23CC4CC(CC(C4)C2)C3)c(O)c1 [Example 70, 2-(Adamantan-1-ylaminomethyl)-benzene-1,3,5-triol]	–	–	B (key: (A)=31-95%; (B)=0-30%)	B (key: (A)=31-95%; (B)=0-30%)
c1csc(CNC23CC4CC(CC(C4)C2)C3)c1 [Example 70a, Adamantan-1-yl-thiophen-2-ylmethyl-amine]	B (key: (A)=31-95%; (B)=0-30%)	B (key: (A)=31-95%; (B)=0-30%)	–	–
c1csc(CNC23CC4CC(CC(C4)C2)C3)n1 [Example 71a, Adamantan-1-yl-thiazol-2-ylmethyl-amine]	B (key: (A)=31-95%; (B)=0-30%)	A (key: (A)=31-95%; (B)=0-30%)	–	–
c1ccc(CNC23CC4CC(CC(C4)C2)C3)nc1 [Example 72, Adamantan-1-yl-pyridin-2-ylmethyl-amine]	–	–	B (key: (A)=31-95%; (B)=0-30%)	B (key: (A)=31-95%; (B)=0-30%)
c1cc(CNC23CC4CC(CC(C4)C2)C3)ccn1 [Example 73, Adamantan-1-yl-pyridin-4-ylmethyl-amine]	–	–	B (key: (A)=31-95%; (B)=0-30%)	B (key: (A)=31-95%; (B)=0-30%)
COc1ccsc1CNC12CC3CC(CC(C3)C1)C2 [Example 74a, Adamantan-1-yl-(3-methoxy-thiophen-2-ylmethyl)-amine]	B (key: (A)=31-95%; (B)=0-30%)	A (key: (A)=31-95%; (B)=0-30%)	–	–
Nc1ncc(CNC23CC4CC(CC(C4)C2)C3)cn1 [Example 75, 5-(Adamantan-1-ylaminomethyl)-pyrimidin-2-ylamine]	–	–	B (key: (A)=31-95%; (B)=0-30%)	B (key: (A)=31-95%; (B)=0-30%)
COc1ccc(CNC23CC4CC(CC(C4)C2)C3)s1 [Example 75a, N-((5-methoxythiophen-2-yl)methyl)adamantan-1-amine]	B (key: (A)=31-95%; (B)=0-30%)	A (key: (A)=31-95%; (B)=0-30%)	–	–
Cc1ccsc1CNC12CC3CC(CC(C3)C1)C2 [Example 76a, N-((3-methylthiophen-2-yl)methyl)adamantan-1-amine]	B (key: (A)=31-95%; (B)=0-30%)	B (key: (A)=31-95%; (B)=0-30%)	–	–
OCc1ccc(CNC23CC4CC(CC(C4)C2)C3)o1 [Example 77, [5-(Adamantan-1-ylaminomethyl)-furan-2-yl]methanol]	–	–	B (key: (A)=31-95%; (B)=0-30%)	B (key: (A)=31-95%; (B)=0-30%)
c1csc(-c2ccc(CNC34CC5CC(CC(C5)C3)C4)s2)c1 [Example 78, N-([2,2′-Bithiophen]-5-ylmethyl)adamantan-1-amine]	–	–	B (key: (A)=31-95%; (B)=0-30%)	A (key: (A)=31-95%; (B)=0-30%)
Cc1ccc(CNC23CC4CC(CC(C4)C2)C3)s1 [Example 78a, N-((5-methylthiophen-2-yl)methyl)adamantan-1-amine]	A (key: (A)=31-95%; (B)=0-30%)	A (key: (A)=31-95%; (B)=0-30%)	–	–
c1cc2cc(CNC34CC5CC(CC(C5)C3)C4)sc2s1 [Example 79, Adamantan-1-yl-thieno[2,3-b]thiophen-2-ylmethyl-amine]	–	–	B (key: (A)=31-95%; (B)=0-30%)	A (key: (A)=31-95%; (B)=0-30%)
Clc1ccc(CNC23CC4CC(CC(C4)C2)C3)s1 [Example 79a, N-((5-chlorothiophen-2-yl)methyl)adamantan-1-amine]	B (key: (A)=31-95%; (B)=0-30%)	A (key: (A)=31-95%; (B)=0-30%)	–	–
c1cc2[nH]c(CNC34CC5CC(CC(C5)C3)C4)cc2s1 [Example 80, Adamantan-1-yl-(4H-thieno[3,2-b]pyrrol-5-ylmethyl)-amine]	–	–	B (key: (A)=31-95%; (B)=0-30%)	A (key: (A)=31-95%; (B)=0-30%)

Source: patent publication US9884832B2 (priority 2011, dated 2018)
